Experimental data reported in US20240199630A1, “IMIDAZO[1,2-B]PYRIDAZINE BASED TRICYCLIC COMPOUNDS AS INHIBITORS OF HASPIN AND THERAPEUTIC USES THEREOF” (FUNDACIÓN DEL SECTOR PÚBLICO ESTATAL CENTRO NACIONAL DE …, priority 2021, published 2024).

Tests used:
HASPIN = HASPIN (Homo sapiens (Human), UniProt Q8TF76); assay: HASPIN biochemical assay (ADP-Glo, HASPIN autophosphorylation); settings: ATP 150 μM, 60 min at 30° C.
Method: HASPIN biochemical Assay: The biochemical assay to measure HASPIN activity relies on the ADP-Glo™ assay kit (Promega) that determines the amount of ADP as direct product of the kinase enzyme activity. Assay conditions were as indicated by the kit manufacturers with the following adaptations for the kinase activity step: Kinase assay buffer and assay volume (15 mM HEPES pH 7.5, 20 mM NaCl, 1 mM EGTA, 0.02% TWEEN 20, 10 mM MgCl2, 0.1 mg/ml BGG)/25 μL assay volume). Incubation time and temperature: 60 min at 30° C. HASPIN final concentration: 0.9 μg/mL. ATP final concentration: 150 μM. HASPIN autophosphorylation was measured. Assays were performed in 384-well plates. The final outcome of the coupled reactions provided by the kit is the release of luciferase and has been measured with a multilabel HTS counter Victor V/Envision. Values were normalized against the control activity included (100% HASPIN activity, without compound). Values were plotted against the inhibitor concentration and fit to a sigmoid dose-response curve using Activity base by IDBS software.

[1] = target: intracellular HASPIN (phosphorylation of the HASPIN substrate H3T3) (Homo sapiens (Human), UniProt Q8TF76); assay: Cellular HASPIN inhibition assay (phosphorylation of H3T3), western blot in MV4:11 cells; format: cell-based; settings: 8 hours of treatment, read-out: pH3T3 EC50
Method: 10 min. The protein content of the lysates is determined by DC protein assay (Biorad, Ref. 5000116).

MV4:11 (AML cell line) = assay: Combination viability assay (CellTiter-Glo), Bliss combination index; settings: MV4:11 cell line, 72 h; agent 1 μM combined with compound 3 at 2 μM; CI<1 synergism
Method: The cells were harvested just before reaching confluency, counted with a haemocytometer and diluted with media. Cells were then seeded in 96-well microtiter plates at a density of 5,000 cells/well. Cells were incubated for 24 hours before adding the compounds. Compounds were weighed out and diluted with DMSO to a final concentration of 10 mM. From here a “mother plate” was prepared at 200X the final concentration in the culture. The final concentration of DMSO in the tissue culture media should not exceed 1%. […] Each compound was assayed in duplicate. Cells were exposed to the compounds for 72 h and then processed for CellTiter-Glo® Luminescent Cell Viability Assay (Promega) read out according to manufacturer's Instruction and read on EndVision (Perkin Elmer). Percentage of viability inhibition was calculated using ActivityBase from IDBS. Potential synergy between drugs was evaluated by calculating the combination index (CI) based on the Bliss Independence model, whereby the CI was calculated with the following equation:
where Ea indicates the viability effect of drug A, Eb indicates the viability effect of drug B and Eab indicates the viability effect of the drug combination. CI<1 indicates synergism, CI=1 indicates additivity and CI>1 indicates antagonism.

PIM1 = PIM1 (Homo sapiens (Human), UniProt P11309); assay: PIM1 activity, methodology of WO2013/005041; format: biochemical; settings: compounds from the present invention
Sequence of PIM1 (P11309 whole entry, species assumed): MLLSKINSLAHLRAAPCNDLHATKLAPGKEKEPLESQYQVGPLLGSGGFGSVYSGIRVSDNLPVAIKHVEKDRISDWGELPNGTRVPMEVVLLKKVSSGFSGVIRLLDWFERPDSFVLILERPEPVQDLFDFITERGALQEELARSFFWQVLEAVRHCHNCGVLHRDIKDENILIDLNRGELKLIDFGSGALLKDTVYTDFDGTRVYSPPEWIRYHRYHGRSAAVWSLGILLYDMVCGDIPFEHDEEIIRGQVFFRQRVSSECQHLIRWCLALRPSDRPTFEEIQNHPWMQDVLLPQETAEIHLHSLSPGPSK

Sequence of HASPIN (Q8TF76 whole entry): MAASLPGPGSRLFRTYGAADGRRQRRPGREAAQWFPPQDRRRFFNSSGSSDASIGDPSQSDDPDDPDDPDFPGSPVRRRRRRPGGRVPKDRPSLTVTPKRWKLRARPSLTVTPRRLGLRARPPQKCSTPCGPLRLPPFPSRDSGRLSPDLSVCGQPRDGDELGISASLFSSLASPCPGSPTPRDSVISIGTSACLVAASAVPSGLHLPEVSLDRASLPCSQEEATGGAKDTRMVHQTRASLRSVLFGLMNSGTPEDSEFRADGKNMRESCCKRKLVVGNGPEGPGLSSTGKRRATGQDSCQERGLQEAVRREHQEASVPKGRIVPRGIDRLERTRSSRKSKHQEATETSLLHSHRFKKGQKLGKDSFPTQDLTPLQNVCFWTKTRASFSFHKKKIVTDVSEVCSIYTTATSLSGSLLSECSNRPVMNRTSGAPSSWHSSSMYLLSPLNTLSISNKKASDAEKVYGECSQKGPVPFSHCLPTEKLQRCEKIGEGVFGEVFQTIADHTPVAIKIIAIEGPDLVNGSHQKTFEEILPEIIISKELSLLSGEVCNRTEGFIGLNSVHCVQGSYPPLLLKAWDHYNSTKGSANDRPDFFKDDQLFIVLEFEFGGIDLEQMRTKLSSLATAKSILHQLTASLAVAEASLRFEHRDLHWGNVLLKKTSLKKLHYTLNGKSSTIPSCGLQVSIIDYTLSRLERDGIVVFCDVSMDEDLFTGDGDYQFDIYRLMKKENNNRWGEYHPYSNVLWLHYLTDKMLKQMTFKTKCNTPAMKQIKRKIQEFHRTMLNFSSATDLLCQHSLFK
Sequence of intracellular HASPIN (phosphorylation of the HASPIN substrate H3T3) (Q8TF76 whole entry): as above

Row | IC50 (PIM1) | SMILES | CI (combination index) (MV4:11 (AML cell line)) | also measured
1 | – | Cc1nc2c3c(c(NCC4(F)CCNCC4)nn2c1-c1ccnc(Cl)c1)CC(C)O3 (racemic) [Compound 33, [3-(2-Chloro-pyridin-4-yl)-2,7-dimethyl-6,7-dihydro-8-oxa-1,3a,4-triaza-as-indacen-5-yl]-(4-fluoro-piperidin-4-ylmethyl)-amine] | – | IC50 (HASPIN): 6.37 nM
2 | – | Cc1nc2c3c(c(NCC4(F)CCNCC4)nn2c1-c1ccnc(Cl)c1)C[C@@H](C)O3 (single isomer, unassigned) [Compound 34] | – | IC50 (HASPIN): 5.87 nM; EC50 [1]: < 50 nM
3 | – | Cc1nc2c3c(c(NCC4(F)CCNCC4)nn2c1-c1ccnc(Cl)c1)C[C@H](C)O3 (single isomer, unassigned) [Compound 35] | – | IC50 (HASPIN): 20.7 nM; EC50 [1]: < 50 nM
4 | – | Cc1nc(NC(=O)N2CCC[C@H]2C(N)=O)sc1-c1ccnc(C(C)(C)C(F)(F)F)c1 [BYL-719, Alpelisib] | 0.59 | –
5 | – | CC[C@H](Nc1ncnc2[nH]cnc12)c1nc2cccc(F)c2c(=O)n1-c1ccccc1 [CAL-101, IDELALISIB, Idelalisib] | 0.67 | –
6 | 3400 nM | Cc1nc2c3c(c(N4CCCC(CN)C4)nn2c1-c1ccnc(Cl)c1)CCCO3 (centres unmarked) [Compound 2, C-{1-[3-(2-Chloro-pyridin-4-yl)-2-methyl-7,8-dihydro-6H-9-oxa-1,3a,4-triaza-cyclopenta[a]naphthalen-5-yl]-piperidin-3-yl}-methylamine] | – | –
7 | > 10000 nM | Cc1nc2c3c(c(N4CCC[C@@H](CN)C4)nn2c1-c1ccnc(Cl)c1)CCCO3 [Compound 3, C-{(S)-1-[3-(2-Chloro-pyridin-4-yl)-2-methyl-7,8-dihydro-6H-9-oxa-1,3a,4-triaza-cyclopenta[a]naphthalen-5-yl]-piperidin-3-yl}-methylamine] | – | –
8 | 2270 nM | Cc1nc2c3c(c(N4CCC[C@H](CN)C4)nn2c1-c1ccnc(Cl)c1)CCCO3 [Compound 4, C-{(R)-1-[3-(2-Chloro-pyridin-4-yl)-2-methyl-7,8-dihydro-6H-9-oxa-1,3a,4-triaza-cyclopenta[a]naphthalen-5-yl]-piperidin-3-yl}-methylamine] | – | –
9 | 3300 nM | Cc1nc2c3c(c(NCC4(F)CCNCC4)nn2c1-c1ccncc1)CCCO3 [Compound 6, (4-Fluoro-piperidin-4-ylmethyl)-(2-methyl-3-pyridin-4-yl-7,8-dihydro-6H-9-oxa-1,3a,4-triaza-cyclopenta[a]naphthalen-5-yl)-amine] | – | –
10 | 1090 nM | Cc1nc2c3c(c(NCC4CCNCC4)nn2c1-c1ccnc(Cl)c1)N(C)CCO3 [Compound 10, [3-(2-Chloro-pyridin-4-yl)-2,6-dimethyl-7,8-dihydro-6H-9-oxa-1,3a,4,6-tetraaza-cyclopenta[a]naphthalen-5-yl]-piperidin-4-ylmethyl-amine] | – | –
11 | 1810 nM | Cc1nc2c3c(c(NCCCCO)nn2c1-c1ccnc(Cl)c1)N(C)CCO3 [Compound 12, 4-[3-(2-Chloro-pyridin-4-yl)-2,6-dimethyl-7,8-dihydro-6H-9-oxa-1,3a,4,6-tetraaza-cyclopenta[a]naphthalen-5-ylamino]-butan-1-ol] | – | –
12 | 3180 nM | Cc1nc2c3c(c(N[C@H]4CC[C@@](C)(O)CC4)nn2c1-c1ccncc1)OCCN3C [Compound 27, 4-(2,9-Dimethyl-3-pyridin-4-yl-8,9-dihydro-7H-6-oxa-1,3a,4,9-tetraaza-cyclopenta[a]naphthalen-5-ylamino)-1-methyl-cyclohexanol] | – | –
13 | – | CCN(CC)C(=S)SSC(=S)N(CC)CC [Disulfiram] | 0.67 | –
14 | – | CN(NC(=O)CC(=O)NN(C)C(=S)c1ccccc1)C(=S)c1ccccc1 [ELESCLOMOL, Elesclomol] | 0.78 | –
15 | – | C#Cc1cccc(Nc2ncnc3cc(OCCOC)c(OCCOC)cc23)c1 [ERLOTINIB, Erlotinib] | 0.62 | –
16 | – | C[C@]12CC[C@@H]3c4ccc(O)cc4C[C@@H](CCCCCCCCC[S+]([O-])CCCC(F)(F)C(F)(F)F)[C@H]3[C@@H]1CC[C@@H]2O (some centres unmarked) [Fulvestrant] | 0.60 | –
17 | – | CS(=O)(=O)N1CCN(Cc2cc3nc(-c4cccc5[nH]ncc45)nc(N4CCOCC4)c3s2)CC1 [GDC-0941, Pictilisib] | 0.85 | –
18 | – | NC1(c2ccc(-c3nc4ccn5c(=O)[nH]nc5c4cc3-c3ccccc3)cc2)CCC1 [MK-2206] | 0.64 | –
19 | – | Cc1ccc(Nc2nccc(N(C)c3ccc4c(C)n(C)nc4c3)n2)cc1S(N)(=O)=O [Pazopanib] | 0.57 | –
20 | – | O=C(CCCCCCNC(=O)c1cnc(N(c2ccccc2)c2ccccc2)nc1)NO [Ricolinostat, ACY-1215, Ricolinostat] | 0.69 | –
21 | – | CC(C)[C@H](O)C(=O)N[C@@H](C)C(=O)N[C@@H]1C(=O)N(C)CCc2ccccc21 [Semagacestat] | 0.53 | –
